Patent US4752469A, “Potentiators of beta-lactam antibiotics” (E. R. Squibb & Sons, Inc., priority 1984, dated 1988)
In brackets after ≈: the same amount, converted by molar mass. Entries after “also recorded” stand apart in the source; their conditions may differ. Read-outs that look alike come from different tables or passages of the source. Starred links: 1 amine or outer side, 2 acyl side, 3 side chain; linkers in the order of their positions; H or OH if unused. Non-standard residues stand in square brackets, D forms with d. Residues, ends and D or L forms follow the SMILES beside them. ξ: configuration not given here. *: point of attachment. X1 = CC(=O)N[C@H]1[C@H](OC2CC(C(=O)[*:2])N([*:1])C2CO)O[C@H](CO)[C@@H](OS(=O)(=O)O)[C@@H]1O; βGlcNAc = CC(=O)N[C@@H]1[C@@H](O)[C@H](O)[C@@H](CO)O[C@H]1*; ξE = NC(CCC(=O)O)C(=O)O; ξK = NCCCCC(N)C(=O)O; ξT = CC(O)C(N)C(=O)O; ξS = NC(CO)C(=O)O

Columns and labels:
[1] = test system: gram-negative bacteria; experiment: enhancement of antibacterial activity of β-lactam antibiotics (general statement); format: cell-based; details: e.g., aztreonam, ampicillin, piperacillin and moxalactam, in words
Excerpt: Moellering, Jr. in: Antibiotics in Laboratory Medicine, ed. V. Lorian, pps. 298-341, Williams and Wilkins, 1980.

[2] = test system: Proteus rettgeri SC 8479; details: for potentiation of cell wall synthesis inhibitors other than β-lactams: Proteus rettgeri system; for potentiation of cell wall synthesis inhibitors other than β-lactams / potentiation of β-lactam antibiotics: in words; for potentiation of β-lactam antibiotics: vs. Proteus rettgeri
Method: (§1) The technique used was the double disk diffusion test, described by D. J. Krogstad and R. C. Moellering, Jr. in: Antibiotics in Laboratory Medicine, ed. V. Lorian, pps. 298-341, Williams and Wilkins, 1980. Disks contained 30 μg of compound, and unless noted otherwise, were placed adjacent to each other on the surface of a nutrient agar seeded with a test organism in a Petri dish.

[3] = test system: Escherichia coli SC 8294; details: for Interaction: Escherichia coli SC 8294; for potentiation of β-lactam antibiotics: vs. Escherichia coli, in words
Method: as §1

[4] = test system: Proteus rettgeri SC 8479; details: agar dilution
[5] = test system: Staphylococcus aureus SC 1276; details: agar dilution
[6] = test system: Proteus vulqaris SC 9416; details: agar dilution
[7] = test system: Salmonella typhosa SC 1195
[8] = test system: Proteus mirabilis SC 3855; details: agar dilution
[9] = 30 μg/disc compound plus Cefoxitin 30 μg/disc
[10] = 30 μg/disc compound plus Cephalothin 30 μg/disc
[11] = 30 μg/disc compound plus Mecillinam 10 μg/disc
[12] = 30 μg/disc compound plus N--f-thienamycin 30 μg/disc

| Compound | enhancement of the antibacterial activity of β-lactam antibiotics [1] | potentiation of cell wall synthesis inhibitors other than β-lactams [2] | potentiation of β-lactam antibiotics [2] | Interaction [3, 9] | Interaction [3, 10] | Interaction [3, 11] | Interaction [3, 12] | potentiation of β-lactam antibiotics [3] | other results |
| --- | --- | --- | --- | --- | --- | --- | --- | --- | --- |
| CC(=O)N[C@@H]1[C@H](O[C@@H]2C[C@@H](C(=O)N[C@@H](CCCCN)C(=O)N[C@H](C(=O)N[C@@H](CO)C(=O)O)[C@@H](C)O[C@@H]3O[C@@H](CO)[C@@H](O)[C@H](O)[C@@H]3NC(C)=O)NC2CO)O[C@@H](CO)[C@@H](OS(=O)(=O)O)[C@@H]1O (some centres unmarked) [SQ 28,504] | potentiates the antibiotic activity of several β-lactam antibiotics; also recorded: enhance the antibacterial activity of β-lactam antibiotics | potentiation occurs with cell wall synthesis inhibitors other than β-lactams | potentiate the activity of β-lactam antibiotics | I | I | I | I | potentiate the activity of β-lactam antibiotics |  |
| CC(=O)N[C@H]1[C@H](OC2CC(C(=O)NC(CCCCN)C(=O)NC(C(=O)NC(CO)C(=O)NC(CCC(=O)O)C(=O)NC(CO)C(=O)O)C(C)O[C@@H]3O[C@H](CO)[C@@H](O)[C@H](O)[C@H]3NC(C)=O)NC2CO)O[C@H](CO)[C@@H](OS(=O)(=O)O)[C@@H]1O (some centres unmarked) [SQ 28,546] (H-[X1][ξK][ξT](βGlcNAc)[ξS][ξE][ξS]-OH) | potentiates the antibiotic activity of several β-lactam antibiotics; also recorded: enhance the antibacterial activity of β-lactam antibiotics | potentiation occurs with cell wall synthesis inhibitors other than β-lactams | potentiate the activity of β-lactam antibiotics | I | I | I | I | potentiate the activity of β-lactam antibiotics | MIC [4]: 12.5 µg/mL (≈ 10.6 µM); MIC [5]: > 100 µg/mL; Interaction ([2]; 30 μg/disc compound plus Vancomycin 30 μg/disc, Proteus rettgeri SC 8479): I; Interaction ([3]; 30 μg/disc compound plus Azocillin 30 μg/disc): I; Interaction ([3]; 30 μg/disc compound plus Cefamandole 30 μg/disc): I; Interaction ([3]; 30 μg/disc compound plus Cefotaxime 30 μg/disc): I; Interaction ([3]; 30 μg/disc compound plus Diumycin 30 μg/disc): I; Interaction ([3]; 30 μg/disc compound plus Fosfonomycin 30 μg/disc): I; Interaction ([3]; 30 μg/disc compound plus Penicillin G 100 Units/disc): I; Interaction ([3]; 30 μg/disc compound plus Vancomycin 30 μg/disc): I; MIC [6]: 12.5 µg/mL (≈ 10.6 µM); MIC [7]: 25.0 µg/mL (≈ 21.2 µM); MIC [8]: 25 µg/mL (≈ 21.2 µM) |
